Like-named read-outs stand apart in the source and are kept apart here.
How the values were obtained:
GABAA receptor = settings: cited from earlier work; for IC50: read-out: reported IC50
Wild-type HEK cells = settings: patch clamp; cited from earlier work
[1] = target: GABAA receptor (α1, β2, and γ2s subunits, HEK-GABA) (Rattus norvegicus, UniProt P18508+P62813+P63138); format: cell-based
[2] = target: T1, α1, β2, and γ2s subunits of the rat GABAA receptors (HEK-GABA cells) (Rattus norvegicus, UniProt P18508+P62813+P63138); assay: QP-DHM blind agonist screen; format: cell-based
T1 sequence (P62813 28-455): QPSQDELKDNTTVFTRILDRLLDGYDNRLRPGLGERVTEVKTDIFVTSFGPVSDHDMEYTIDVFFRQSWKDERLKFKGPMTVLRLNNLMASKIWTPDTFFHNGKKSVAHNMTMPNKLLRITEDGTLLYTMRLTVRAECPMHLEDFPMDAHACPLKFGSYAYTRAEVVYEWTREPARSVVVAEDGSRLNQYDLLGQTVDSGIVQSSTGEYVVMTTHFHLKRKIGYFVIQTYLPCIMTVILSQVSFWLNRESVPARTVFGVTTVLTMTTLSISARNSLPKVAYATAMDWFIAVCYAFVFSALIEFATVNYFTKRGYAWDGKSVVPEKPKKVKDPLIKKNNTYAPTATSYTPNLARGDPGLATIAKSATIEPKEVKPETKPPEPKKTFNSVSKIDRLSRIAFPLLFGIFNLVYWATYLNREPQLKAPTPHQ
T1 sequence (P63138 25-474 limits assumed): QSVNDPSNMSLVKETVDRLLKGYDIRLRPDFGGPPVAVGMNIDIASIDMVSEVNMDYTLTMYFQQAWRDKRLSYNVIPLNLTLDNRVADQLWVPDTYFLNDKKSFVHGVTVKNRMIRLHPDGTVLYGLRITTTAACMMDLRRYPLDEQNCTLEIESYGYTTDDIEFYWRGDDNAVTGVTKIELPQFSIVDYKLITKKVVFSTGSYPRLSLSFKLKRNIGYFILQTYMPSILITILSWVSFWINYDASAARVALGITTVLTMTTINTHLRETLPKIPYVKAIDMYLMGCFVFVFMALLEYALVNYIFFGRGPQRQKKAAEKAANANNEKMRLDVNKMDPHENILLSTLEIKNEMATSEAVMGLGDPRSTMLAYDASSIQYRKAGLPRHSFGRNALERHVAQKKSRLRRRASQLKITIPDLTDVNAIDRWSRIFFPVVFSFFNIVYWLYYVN
T1 sequence (P18508 39-466): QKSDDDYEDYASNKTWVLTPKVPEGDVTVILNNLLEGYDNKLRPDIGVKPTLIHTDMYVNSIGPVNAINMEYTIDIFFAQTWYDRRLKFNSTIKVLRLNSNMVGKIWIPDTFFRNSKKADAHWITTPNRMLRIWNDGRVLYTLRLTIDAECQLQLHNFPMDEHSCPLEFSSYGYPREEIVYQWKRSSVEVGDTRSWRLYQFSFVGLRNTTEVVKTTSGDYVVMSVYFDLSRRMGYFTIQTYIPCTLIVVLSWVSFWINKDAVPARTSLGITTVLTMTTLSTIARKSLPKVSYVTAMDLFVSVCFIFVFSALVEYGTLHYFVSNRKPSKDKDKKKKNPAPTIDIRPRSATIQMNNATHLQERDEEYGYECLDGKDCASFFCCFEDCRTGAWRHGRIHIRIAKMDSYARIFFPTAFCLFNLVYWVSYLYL

[3] = tested on: human α1β2γ2L GABAA receptor subunits in L(tk−) cells; settings: L(tk−) cells stably transfected with human α1β2γ2L; cited from earlier work
[4] = target: T1, α1, β2, and γ2s subunits of the rat GABAA receptors (HEK-GABA cells); assay: QP-DHM modulator mode; format: cell-based; settings: maximum concentration of compound, with GABA at EC30, Fig. 3D
[5] = tested on: α1β2γ2 expressed in Xenopus oocytes; settings: read-out: EC50 as modulator; cited from earlier work
[6] = target: T1, α1, β2, and γ2s subunits of the rat GABAA receptors (HEK-GABA cells); assay: Whole-cell electrophysiology recording on HEK-GABA cells; format: cell-based; settings: electrophysiology vs QP-DHM
[7] = Table 1, dose-response curves of validated hits

Sequence of GABAA receptor (α1, β2, and γ2s subunits, HEK-GABA) (P62813 28-455): as the sequence (P62813 28-455) above
Sequence of GABAA receptor (α1, β2, and γ2s subunits, HEK-GABA) (P63138 25-474 limits assumed): as the sequence (P63138 25-474 limits assumed) above
Sequence of GABAA receptor (α1, β2, and γ2s subunits, HEK-GABA) (P18508 39-466): as the sequence (P18508 39-466) above

## CN1CCc2cc3c(cc2[C@H]1[C@@H]1OC(=O)c2c1ccc1c2OCO1)OCO3 [(+)-Bicuculline]
GABAA receptor; in the presence of 3 μM GABA
  IC50: 900 nM
GABAA receptor; in the presence of 10 μM GABA
  IC50: 530 nM

## Picrotoxin
GABAA receptor; in the presence of 10 μM GABA
  IC50: 3100 nM

## NCCCC(=O)O [GABA]
Wild-type HEK cells
  electrophysiological response of wild-type HEK cells: no electrophysiological response

## CC[C@]1(O)C[C@@H]2CN(CCc3c([nH]c4ccccc34)[C@@](C(=O)OC)(c3cc4c(cc3OC)N(C)[C@H]3[C@@](O)(C(N)=O)[C@H](O)[C@]5(CC)C=CCN6CC[C@]43[C@@H]65)C2)C1 [STOCK1N-75293, Vindesine]
[1]
  outcome of hits validation (activity and specificity for the GABAA receptor): marginal effect

## NCc1cc(=O)[nH]o1 [Muscimol]
[2]
  EC50: 200 nM
[2]; [7]
  Amplitude (%): 100%
  Hill Coefficient: 1.9

## COc1cc2c(c(OC)c1OC)-c1ccc(OC)c(=O)cc1[C@@H](NC(C)=O)CC2 [Colchicine]
[3]
  effect on GABA currents: significantly inhibits GABA currents

## CCN(C(C)=O)c1cccc(-c2ccnc3c(C#N)cnn23)c1 [Zaleplon]
[4]
  effect of GABA increased to % of the maximum (GABA at 10 µM): 41%
[5]
  EC50: 170 nM

## CC(=O)OC1CCC2(C)C(CCC3C4CCC(C(C)=O)C4(C)CC(=O)C32)C1 (stereo not drawn)
[2]; natural products collection
  result in blind agonist screen: negative

## COc1ccc(-c2ccc(=N)n(CCCC(=O)O)n2)cc1 [Gabazine]
GABAA receptor; in the presence of 3 μM GABA
  IC50: ~200 nM

## Ivermectin
[6]
  EC50 with electrophysiology relative to QP-DHM (fold higher): ~ 10 ×
GABAA receptor
  rise time relative to GABA (times longer): about 500 times

## CC[C@H](C)[C@H]1O[C@]2(C=C[C@@H]1C)C[C@@H]1C[C@@H](C/C=C(\C)[C@@H](O[C@H]3C[C@H](OC)[C@@H](O[C@H]4C[C@H](OC)[C@@H](O)[C@H](C)O4)[C@H](C)O3)[C@@H](C)/C=C/C=C3\CO[C@@H]4[C@H](O)C(C)=C[C@@H](C(=O)O1)[C@]34O)O2 [Avermectin B1a]
[6]
  EC50 with electrophysiology relative to QP-DHM (fold higher): ~ 10 ×
[2]
  EC50: 6900 nM
[2]; [7]
  Amplitude (%): 94%
  Hill Coefficient: 6.3
[2]; Table 2, avermectin family
  Amplitude (%): 94%
  Hill Coefficient: 6.3

— paper PMC7243081 (Slas Discovery, 2019)
